Test results: patent US5817617A, “Selectin and pertussis toxin derived peptides and uses thereof” (The Rockefeller University, priority 1994, dated 1998)
Where a SMILES comes first, the peptide text is derived from it.

Experiments:
Format in all cases: cell-based
ELAM = assay: Assay 1: inhibition of adherence of neutrophils to ELAM-coated surfaces (FIG. 4); conditions: for % of inhibition ASSAY 1: peptide at 1 mg/ml, neutrophils on ELAM-coated surfaces
Method: In the study, the proteins PT, B-oligomer, S2, S3, S2/S3 and S3/S2 were taken up in an isotonic buffered tissue culture medium to a concentration of 50 ug/ml and the ability of each of them to inhibit adhesion of neutrophils to ELAM or GMP140 was determined as described by Wright et al J. Exp. Med. 158:2016 (1983). The buffer was employed as the control and each protein studied was compared to the control for the ability to decrease adhesion capacity.
Assay 1 is inhibition of adherence of enutrophils to ELAM-coated surfaces as described in connection with FIG. 4. Values ±20% inhibition are significant.

CR3 = assay: Assay 3: upregulation of integrins (CR3) on the surface of a neutrophil, detected with EC3bi (FIG. 5); conditions: for # of cells ASSAY 3: peptide at 1 mg/ml, upregulation of integrins on neutrophil; for ability to upregulate integrins on leukocytes, assay 3 (in words): peptides of Table 2
Method: EC3bi is an erythrocyte coated with the complement component C3bi and is used to detect the presence of CR3 on the surface of a leukocyte according to the procedure of Wright et al (supra).
The test was conducted with separate proteins in tissue culture as in the experiment described in connection with the previous figure.
Assay 3 measures upregulation of integrins on the surface of a neutorphil as described in FIG. 5. Values ±50% are significant.

endothelial cells = assay: Assay 2: inhibition of adherence of a neutrophil to a monolayer of endothelial cells; conditions: peptide at 1 mg/ml; for % of inhibition ASSAY 2: neutrophil on monolayer of endothelial cells; for activity in Assays 1 or 2 (in words): adherence of leukocytes to selectins or endothelial cells bearing selectins
Excerpt: Assay 2 is inhibition of adherence of a neutrophil to a monolayer of endothelial cells as described by Lo et al J. Exp. Med. 173:1493-1500 (1991). Values ±50% inhibition are significant.

| Compound | % of inhibition ASSAY 1 (ELAM) | # of cells ASSAY 3 (CR3) | ability to upregulate integrins on leukocytes, assay 3 (in words) (CR3) | % of inhibition ASSAY 2 (endothelial cells) | activity in Assays 1 or 2 (in words) (endothelial cells) | inhibition of neutrophil/leukocyte adherence to ELAM (ELAM; protein at 50 ug/ml, compared to buffer control) |
| --- | --- | --- | --- | --- | --- | --- |
| CC[C@H](C)[C@H](NC(=O)[C@H](C)NC(=O)[C@@H](N)C(C)C)C(=O)N[C@@H](CCC(N)=O)C(=O)N[C@@H](CC(N)=O)C(=O)N[C@@H](CCCCN)C(=O)N[C@@H](CCC(=O)O)C(=O)N[C@@H](CCC(=O)O)C(=O)N[C@H](C(=O)N[C@@H](CCC(=O)O)C(=O)N[C@@H](Cc1ccc(O)cc1)C(=O)N[C@@H](CC(C)C)C(=O)N[C@@H](CC(N)=O)C(=O)N[C@@H](CO)C(=O)N[C@H](C(=O)N[C@@H](CC(C)C)C(=O)N[C@@H](CO)C(=O)N[C@@H](Cc1ccc(O)cc1)C(=O)N[C@@H](CO)C(=O)O)[C@@H](C)CC)[C@@H](C)CC [SEQ ID NO:15, VAIQNKEEIEYLNSILSYS] (H-VAIQNKEEIEYLNSILSYS-OH) | 22-52% | 71 # of cells | ability to upregulate integrins on leukocytes | – | – | – |
| CC[C@H](C)[C@H](NC(=O)[C@H](C)NC(=O)[C@@H](NC(=O)[C@H](CC(C)C)NC(=O)[C@H](CC(=O)O)NC(=O)[C@@H](N)[C@@H](C)O)C(C)C)C(=O)N[C@@H](CCC(N)=O)C(=O)N[C@@H](CC(N)=O)C(=O)N[C@@H](CCCCN)C(=O)N[C@@H](C)C(=O)N[C@@H](CCC(=O)O)C(=O)N[C@H](C(=O)N[C@@H](CCC(=O)O)C(=O)N[C@@H](Cc1ccc(O)cc1)C(=O)N[C@@H](CC(C)C)C(=O)O)[C@@H](C)CC [SEQ ID NO:19, TDLVAIQNKAEIEYL] (H-TDLVAIQNKAEIEYL-OH) | – | 104 # of cells | ability to upregulate integrins on leukocytes | 80% | – | – |
| CC(C)C[C@H](NC(=O)[C@H](Cc1ccc(O)cc1)NC(=O)[C@@H](NC(=O)[C@H](CCC(N)=O)NC(=O)[C@H](CC(C)C)NC(=O)[C@H](CCC(=O)O)NC(=O)[C@H](C)NC(=O)[C@H](CC(N)=O)NC(=O)CNC(=O)[C@H](CC(C)C)NC(=O)[C@H](CCC(=O)O)NC(=O)[C@H](C)NC(=O)[C@@H](NC(=O)[C@@H](NC(=O)[C@H](CC(C)C)NC(=O)[C@H](C)N)[C@@H](C)O)C(C)C)[C@@H](C)O)C(=O)O [SEQ ID NO:26, ALTVAELGNAELQTYL] (H-ALTVAELGNAELQTYL-OH) | – | – | ability to upregulate integrins on leukocytes | – | active | – |
| CC[C@H](C)[C@H](NC(=O)[C@H](CO)NC(=O)[C@H](CC(N)=O)NC(=O)[C@H](CC(C)C)NC(=O)[C@H](Cc1ccc(O)cc1)NC(=O)[C@H](CCC(=O)O)NC(=O)[C@@H](NC(=O)[C@H](CCC(=O)O)NC(=O)[C@H](CCC(=O)O)NC(=O)[C@@H](N)CCCCN)[C@@H](C)CC)C(=O)N[C@@H](CC(C)C)C(=O)N[C@@H](CO)C(=O)N[C@@H](Cc1ccc(O)cc1)C(=O)N[C@@H](CO)C(=O)O [SEQ ID NO:29, KEEIEYLNSILSYS] (H-KEEIEYLNSILSYS-OH) | 0-2% | 73 # of cells | – | – | – | – |
| CC[C@H](C)[C@H](NC(=O)[C@H](C)NC(=O)[C@@H](NC(=O)[C@H](CC(C)C)NC(=O)[C@@H](N)[C@@H](C)O)C(C)C)C(=O)N[C@@H](CCC(N)=O)C(=O)N[C@@H](CC(N)=O)C(=O)N[C@@H](CCCCN)C(=O)N[C@@H](CCC(=O)O)C(=O)N[C@@H](CCC(=O)O)C(=O)N[C@H](C(=O)N[C@@H](CCC(=O)O)C(=O)N[C@@H](Cc1ccc(O)cc1)C(=O)N[C@@H](CC(C)C)C(=O)O)[C@@H](C)CC [SEQ ID NO:30, TLVAIQNKEEIEYL] (H-TLVAIQNKEEIEYL-OH) | – | 243 # of cells | ability to upregulate integrins on leukocytes | 80% | – | – |
| CC[C@H](C)[C@H](NC(=O)[C@H](C)NC(=O)[C@@H](N)C(C)C)C(=O)N[C@@H](CCC(N)=O)C(=O)N[C@@H](CC(N)=O)C(=O)N[C@@H](CCCCN)C(=O)N[C@@H](C)C(=O)N[C@@H](CCC(=O)O)C(=O)N[C@H](C(=O)N[C@@H](CCC(=O)O)C(=O)N[C@@H](Cc1ccc(O)cc1)C(=O)N[C@@H](CC(C)C)C(=O)N[C@@H](CCC(=O)O)C(=O)N[C@@H](CCCCN)C(=O)N[C@H](C(=O)N[C@@H](CC(C)C)C(=O)N1CCC[C@H]1C(=O)N[C@@H](Cc1ccccc1)C(=O)N[C@@H](CO)C(=O)O)[C@@H](C)O)[C@@H](C)CC [SEQ ID NO:31, VAIQNKAEIEYLEKTLPFS] (H-VAIQNKAEIEYLEKTLPFS-OH) | 23-31% | 163 # of cells | ability to upregulate integrins on leukocytes | – | – | – |
| CC[C@H](C)[C@H](NC(=O)[C@H](CCC(N)=O)NC(=O)[C@H](CCCNC(=N)N)NC(=O)[C@H](CC(C)C)NC(=O)[C@H](Cc1ccc(O)cc1)NC(=O)[C@@H](NC(=O)[C@H](CCC(N)=O)NC(=O)[C@H](CC(C)C)NC(=O)[C@H](CCC(=O)O)NC(=O)[C@H](C)N)[C@@H](C)O)C(=O)N[C@H](C(=O)N1CCC[C@H]1C(=O)NCC(=O)N[C@@H](Cc1c[nH]c2ccccc12)C(=O)N[C@@H](CO)C(=O)O)[C@@H](C)O [SEQ ID NO:32, AELQTYLRQITPGWS] (H-AELQTYLRQITPGWS-OH) | 0-18% | 122 # of cells | – | – | – | – |
| CC[C@H](C)[C@H](NC(=O)[C@H](C)NC(=O)[C@@H](N)C(C)C)C(=O)N[C@@H](CCC(N)=O)C(=O)N[C@@H](CC(N)=O)C(=O)N[C@@H](CCCCN)C(=O)N[C@@H](CC(N)=O)C(=O)N[C@@H](CCC(=O)O)C(=O)N[C@H](C(=O)N[C@@H](CC(=O)O)C(=O)N[C@@H](Cc1ccc(O)cc1)C(=O)N[C@@H](CC(C)C)C(=O)N[C@@H](CC(N)=O)C(=O)N[C@@H](CCCCN)C(=O)N[C@H](C(=O)N[C@@H](CC(C)C)C(=O)N1CCC[C@H]1C(=O)N[C@@H](Cc1ccc(O)cc1)C(=O)N[C@@H](Cc1ccc(O)cc1)C(=O)N[C@@H](CO)C(=O)O)C(C)C)[C@@H](C)CC [SEQ ID NO:33] (H-VAIQNKNEIDYLNKVLPYYS-OH) | 3-14% | 113 # of cells | ability to upregulate integrins on leukocytes | – | – | – |
| CC(C)C[C@H](NC(=O)[C@H](CC(=O)O)NC(=O)CNC(=O)[C@H](CO)NC(=O)CNC(=O)[C@H](CCCNC(=N)N)NC(=O)[C@H](CC(C)C)NC(=O)[C@H](CCC(=O)O)NC(=O)[C@H](C)NC(=O)[C@@H](N)C(C)C)C(=O)N[C@@H](CCC(N)=O)C(=O)N[C@@H](CCC(=O)O)C(=O)N[C@@H](Cc1ccc(O)cc1)C(=O)N[C@@H](CC(C)C)C(=O)N[C@@H](CCCNC(=N)N)C(=O)N[C@@H](Cc1c[nH]cn1)C(=O)N[C@H](C(=O)N[C@H](C(=O)N[C@@H](CCCNC(=N)N)C(=O)NCC(=O)N[C@@H](Cc1c[nH]c2ccccc12)C(=O)N[C@@H](CO)C(=O)O)[C@@H](C)O)C(C)C [SEQ ID NO:34] | 22-33% | 18 # of cells | does not share this property | – | – | – |
| CC(C)C[C@H](NC(=O)[C@H](CC(=O)O)NC(=O)CN)C(=O)N[C@@H](CCC(N)=O)C(=O)N[C@@H](CCC(=O)O)C(=O)N[C@@H](Cc1ccc(O)cc1)C(=O)N[C@@H](CC(C)C)C(=O)N[C@@H](CCCNC(=N)N)C(=O)N[C@@H](Cc1c[nH]cn1)C(=O)N[C@H](C(=O)N[C@H](C(=O)N[C@@H](CCCNC(=N)N)C(=O)NCC(=O)N[C@@H](Cc1c[nH]c2ccccc12)C(=O)N[C@@H](CO)C(=O)O)[C@@H](C)O)C(C)C [SEQ ID NO:35, GDLQEYLRHVTRGWS] | 0-14% | 104 # of cells | – | – | – | – |
| CC(C)C[C@H](NC(=O)[C@H](Cc1ccc(O)cc1)NC(=O)[C@H](CCC(=O)O)NC(=O)[C@H](CCC(N)=O)NC(=O)[C@H](CC(C)C)NC(=O)[C@H](CC(=O)O)NC(=O)CNC(=O)[C@H](CO)NC(=O)CNC(=O)[C@H](CC(C)C)NC(=O)[C@H](CCC(=O)O)NC(=O)[C@H](C)NC(=O)[C@@H](NC(=O)[C@@H](NC(=O)[C@H](CC(C)C)NC(=O)[C@H](C)N)[C@@H](C)O)C(C)C)C(=O)O [SEQ ID NO:36, ALTVAELGSGDLQEYL] (H-ALTVAELGSGDLQEYL-OH) | – | 232 # of cells | ability to upregulate integrins on leukocytes | 80% | active | – |
| S3 with deletion 1: S3 protein from which the VA or YL region of the motif was deleted (TRALTRGNAELQTYLRQITP) | – | – | – | – | – | 16% |
